In ChEMBL document CHEMBL5576063, “Design, concise synthesis and evaluation of novel amide-based combretastatin A-4 analogues as potent tubulin inhibitors” (Bioorg Med Chem Lett, 2024):
Activity calls are given as the source filed them. The calls are words filed in the database; no cut-off is given here.

Key:
A549 [1] = test: Antiproliferative activity against human A549 cells assessed as inhibition of cell growth by MTT assay; assay type: functional, cell-based
HCT-116 = test: Antiproliferative activity against human HCT-116 cells assessed as inhibition of cell growth by MTT assay; assay type: functional, cell-based
HT-29 = test: Antiproliferative activity against human HT-29 cells assessed as inhibition of cell growth by MTT assay; assay type: functional, cell-based
HeLa = test: Antiproliferative activity against human HeLa cells assessed as inhibition of cell growth by MTT assay; assay type: functional, cell-based
[2] = Antiproliferative activity against HEK293 cells assessed as inhibition of cell growth by MTT assay; assay type: toxicity, cell-based; settings: human
Tubulin (Homo sapiens) [3] = biological target: T1, Tubulin (Homo sapiens) (UniProt P68371+Q9H4B7+P0DPH7+P68366+Q13509+Q71U36+P04350+Q3ZCM7+P07437+P68363+Q9BQE3+Q6PEY2+Q13885+Q9BVA1+Q9BUF5); test: Inhibition of tubulin polymerization (unknown origin) at 10 uM measured upto 30 mins by spectrophotometry based analysis relative to control; assay type: protein-complex assay
Tubulin = test: Inhibition of tubulin polymerization (unknown origin) measured upto 30 mins by spectrophotometry based analysis; assay type: protein-complex assay, Homo sapiens
A549 [4] = test: Induction of cell cycle arrest in human A549 cells assessed as accumulation of cells at G0/G1 phase at 1.2 uM measured after 24 hrs by PI staining based flow cytometry analysis (reference value: 55.88%); assay type: functional
A549 [5] = test: Induction of cell cycle arrest in human A549 cells assessed as accumulation of cells at G0/G1 phase at 2.4 uM measured after 24 hrs by PI staining based flow cytometry analysis (reference value: 55.88%); assay type: functional
A549 [6] = test: Induction of cell cycle arrest in human A549 cells assessed as accumulation of cells at G0/G1 phase at 4.8 uM measured after 24 hrs by PI staining based flow cytometry analysis (reference value: 55.88%); assay type: functional
A549 [7] = test: Induction of cell cycle arrest in human A549 cells assessed as accumulation of cells at G2/M phase at 1.2 uM measured after 24 hrs by PI staining based flow cytometry analysis (reference value: 21.00%); assay type: functional
A549 [8] = test: Induction of cell cycle arrest in human A549 cells assessed as accumulation of cells at G2/M phase at 2.4 uM measured after 24 hrs by PI staining based flow cytometry analysis (reference value: 21.00%); assay type: functional
A549 [9] = test: Induction of cell cycle arrest in human A549 cells assessed as accumulation of cells at G2/M phase at 4.8 uM measured after 24 hrs by PI staining based flow cytometry analysis (reference value: 21.00%); assay type: functional
A549 [10] = test: Induction of cell cycle arrest in human A549 cells assessed as accumulation of cells at S phase at 1.2 uM measured after 24 hrs by PI staining based flow cytometry analysis (reference value: 23.17%); assay type: functional
A549 [11] = test: Induction of cell cycle arrest in human A549 cells assessed as accumulation of cells at S phase at 2.4 uM measured after 24 hrs by PI staining based flow cytometry analysis (reference value: 23.17%); assay type: functional
A549 [12] = test: Induction of cell cycle arrest in human A549 cells assessed as accumulation of cells at S phase at 4.8 uM measured after 24 hrs by PI staining based flow cytometry analysis (reference value: 23.17%); assay type: functional
A549 [13] = test: Induction of apoptosis in human A549 cells assessed as viable cells at 1.2 uM measured after 24 hrs by annexin-V/PI staining based flow cytometry analysis (reference value: 97.4%); assay type: functional; settings: read-out: Activity
A549 [14] = test: Induction of apoptosis in human A549 cells assessed as viable cells at 2.4 uM measured after 24 hrs by annexin-V/PI staining based flow cytometry analysis (reference value: 97.4%); assay type: functional; settings: read-out: Activity
A549 [15] = test: Induction of apoptosis in human A549 cells assessed as viable cells at 4.8 uM measured after 24 hrs by annexin-V/PI staining based flow cytometry analysis (reference value: 97.4%); assay type: functional; settings: read-out: Activity
A549 [16] = test: Induction of apoptosis in human A549 cells assessed as early apoptotic cells at 1.2 uM measured after 24 hrs by annexin-V/PI staining based flow cytometry analysis (reference value: 1.87%); assay type: functional
A549 [17] = test: Induction of apoptosis in human A549 cells assessed as early apoptotic cells at 2.4 uM measured after 24 hrs by annexin-V/PI staining based flow cytometry analysis (reference value: 1.87%); assay type: functional
A549 [18] = test: Induction of apoptosis in human A549 cells assessed as early apoptotic cells at 4.8 uM measured after 24 hrs by annexin-V/PI staining based flow cytometry analysis (reference value: 1.87%); assay type: functional
A549 [19] = test: Induction of apoptosis in human A549 cells assessed as late apoptotic cells at 1.2 uM measured after 24 hrs by annexin-V/PI staining based flow cytometry analysis (reference value: 0.25%); assay type: functional
A549 [20] = test: Induction of apoptosis in human A549 cells assessed as late apoptotic cells at 2.4 uM measured after 24 hrs by annexin-V/PI staining based flow cytometry analysis (reference value: 0.25%); assay type: functional
A549 [21] = test: Induction of apoptosis in human A549 cells assessed as late apoptotic cells at 4.8 uM measured after 24 hrs by annexin-V/PI staining based flow cytometry analysis (reference value: 0.25%); assay type: functional
A549 [22] = test: Induction of apoptosis in human A549 cells assessed as necrotic cells at 1.2 uM measured after 24 hrs by annexin-V/PI staining based flow cytometry analysis (reference value: 0.48%); assay type: functional
A549 [23] = test: Induction of apoptosis in human A549 cells assessed as necrotic cells at 2.4 uM measured after 24 hrs by annexin-V/PI staining based flow cytometry analysis (reference value: 0.48%); assay type: functional
A549 [24] = test: Induction of apoptosis in human A549 cells assessed as necrotic cells at 4.8 uM measured after 24 hrs by annexin-V/PI staining based flow cytometry analysis (reference value: 0.48%); assay type: functional
A549 [25] = test: Induction of cell cycle arrest in human A549 cells assessed as accumulation of cells at G2/M phase measured after 24 hrs by PI staining based flow cytometry analysis; assay type: functional; settings: dose 1.2-4.8 µM
A549 [26] = test: Induction of apoptosis in human A549 cells assessed measured after 24 hrs by annexin-V/PI staining based flow cytometry analysis; assay type: functional, cell-based; settings: dose 1.2-4.8 µM
Tubulin (Homo sapiens) [27] = biological target: T1, Tubulin (Homo sapiens); test: Inhibition of tubulin polymerization (unknown origin) at 6 uM measured upto 30 mins by spectrophotometry analysis; assay type: protein-complex assay
Tubulin (Homo sapiens) [28] = biological target: T1, Tubulin (Homo sapiens); test: Inhibition of tubulin polymerization (unknown origin) at 10 uM measured upto 30 mins by spectrophotometry analysis; assay type: protein-complex assay

COc1ccc(/C=C(/C(=O)Nc2ccccc2)c2cc(OC)c(OC)c(OC)c2)cc1O
IC50 (A549 [1]): 2.42 µM | IC50 (HCT-116): 6.28 µM | IC50 (HT-29): 5.33 µM | IC50 (HeLa): 10.3 µM | IC50 [2]: > 100 µM | inhibition (Tubulin (Homo sapiens) [3]): 62% | IC50 (Tubulin): 6.9 µM | Activity (A549 [4]): 53.47% | Activity (A549 [5]): 40.69% | Activity (A549 [6]): 53.73% | Activity (A549 [7]): 28.81% | Activity (A549 [8]): 46.63% | Activity (A549 [9]): 32.36% | Activity (A549 [10]): 22.72% | Activity (A549 [11]): 32.71% | Activity (A549 [12]): 13.9% | viability at 1.2 µM (A549 [13]): 96.4% | viability at 2.4 µM (A549 [14]): 93.1% | viability at 4.8 µM (A549 [15]): 86.9% | Activity (A549 [16]): 1.98% | Activity (A549 [17]): 1.87% | Activity (A549 [18]): 4.97% | Activity (A549 [19]): 1.35% | Activity (A549 [20]): 3.33% | Activity (A549 [21]): 5.15% | Activity (A549 [22]): 0.27% | Activity (A549 [23]): 1.65% | Activity (A549 [24]): 2.96% | Activity (A549 [25]): Dose-Dependent Effect | Activity (A549 [26]): Dose-Dependent Effect | inhibition (Tubulin (Homo sapiens) [27]): Active

COc1ccc(/C=C(/C(=O)NCc2ccccc2)c2cc(OC)c(OC)c(OC)c2)cc1O
IC50 (A549 [1]): > 50 µM

CCN1CCN(c2ccc(NC(=O)/C(=C/c3ccc(OC)c(OC(C)=O)c3)c3cc(OC)c(OC)c(OC)c3)cc2)CC1
IC50 (A549 [1]): 4.85 µM

COc1ccc(/C=C(/C(=O)Nc2ccc(C(C)C)cc2)c2cc(OC)c(OC)c(OC)c2)cc1OC(C)=O
IC50 (A549 [1]): 1.08 µM | IC50 (HCT-116): 28.6 µM | IC50 (HT-29): 18.1 µM | IC50 (HeLa): 23.4 µM | IC50 [2]: > 100 µM | inhibition (Tubulin (Homo sapiens) [3]): 3%

COc1ccc(/C=C(/C(=O)NC2CC2)c2cc(OC)c(OC)c(OC)c2)cc1O
IC50 (A549 [1]): > 50 µM

COc1ccc(/C=C(/C(=O)Nc2ccc(C)cc2)c2cc(OC)c(OC)c(OC)c2)cc1OC(C)=O
IC50 (A549 [1]): 3.99 µM

COc1ccc(NC(=O)/C(=C/c2ccc(OC)c(O)c2)c2cc(OC)c(OC)c(OC)c2)cc1
IC50 (A549 [1]): > 50 µM

COc1ccc(/C=C(/C(=O)Nc2ccc(C)cc2)c2cc(OC)c(OC)c(OC)c2)cc1O
IC50 (A549 [1]): 24.5 µM

COc1ccc(/C=C(/C(=O)Nc2ccc(N3CCN(C)CC3)cc2)c2cc(OC)c(OC)c(OC)c2)cc1O
IC50 (A549 [1]): > 50 µM

COc1ccc(/C=C(/C(=O)NCc2ccccc2)c2cc(OC)c(OC)c(OC)c2)cc1OC(C)=O
IC50 (A549 [1]): 33.8 µM

CCN1CCN(c2ccc(NC(=O)/C(=C/c3ccc(OC)c(O)c3)c3cc(OC)c(OC)c(OC)c3)cc2)CC1
IC50 (A549 [1]): 45.7 µM

COc1ccc(/C=C(/C(=O)Nc2ccc(N3CCN(C)CC3)cc2)c2cc(OC)c(OC)c(OC)c2)cc1OC(C)=O
IC50 (A549 [1]): > 50 µM

CC(=O)O[C@H]1C(=O)[C@@]2(C)[C@H]([C@H](OC(=O)c3ccccc3)[C@]3(O)C[C@H](OC(=O)[C@H](O)[C@@H](NC(=O)c4ccccc4)c4ccccc4)C(C)=C1C3(C)C)[C@]1(OC(C)=O)CO[C@@H]1C[C@@H]2O
inhibition (Tubulin (Homo sapiens) [28]): inactive

COc1ccc(/C=C\c2cc(OC)c(OC)c(OC)c2)cc1O [COMBRETASTATIN A4]
IC50 (A549 [1]): 0.11 µM | IC50 (HCT-116): 4.77 µM | IC50 (HT-29): 1.65 µM | IC50 (HeLa): 0.08 µM | IC50 [2]: 48.1 µM

COc1ccc(/C=C(/C(=O)Nc2cc(OC)c(OC)c(OC)c2)c2cc(OC)c(OC)c(OC)c2)cc1OC(C)=O
IC50 (A549 [1]): 0.73 µM | IC50 (HCT-116): 5.49 µM | IC50 (HT-29): 4.71 µM | IC50 (HeLa): 9.79 µM | IC50 [2]: > 100 µM | inhibition (Tubulin (Homo sapiens) [3]): 34%

CCc1ccc(NC(=O)/C(=C/c2ccc(OC)c(O)c2)c2cc(OC)c(OC)c(OC)c2)cc1
IC50 (A549 [1]): > 50 µM

COc1ccc(/C=C(/C(=O)NC2CCCC2)c2cc(OC)c(OC)c(OC)c2)cc1OC(C)=O
IC50 (A549 [1]): > 50 µM

COc1ccc(/C=C(/C(=O)Nc2cc(OC)c(OC)c(OC)c2)c2cc(OC)c(OC)c(OC)c2)cc1O
IC50 (A549 [1]): > 50 µM

COc1ccc(/C=C(/C(=O)Nc2ccc(C(C)C)cc2)c2cc(OC)c(OC)c(OC)c2)cc1O
IC50 (A549 [1]): 43.4 µM

COc1ccc(/C=C(/C(=O)NC2CC2)c2cc(OC)c(OC)c(OC)c2)cc1OC(C)=O
IC50 (A549 [1]): > 50 µM

CCc1ccc(NC(=O)/C(=C/c2ccc(OC)c(OC(C)=O)c2)c2cc(OC)c(OC)c(OC)c2)cc1
IC50 (A549 [1]): 3.53 µM

COc1ccc(/C=C(/C(=O)Nc2ccc(Cl)cc2)c2cc(OC)c(OC)c(OC)c2)cc1OC(C)=O
IC50 (A549 [1]): 2.64 µM | IC50 (HCT-116): 20.5 µM | IC50 (HT-29): 30.2 µM | IC50 (HeLa): 17.3 µM | IC50 [2]: > 100 µM | inhibition (Tubulin (Homo sapiens) [3]): 3%

COc1ccc(NC(=O)/C(=C/c2ccc(OC)c(OC(C)=O)c2)c2cc(OC)c(OC)c(OC)c2)cc1
IC50 (A549 [1]): 3.01 µM

COc1ccc(/C=C(/C(=O)Nc2ccccc2)c2cc(OC)c(OC)c(OC)c2)cc1OC(C)=O
IC50 (A549 [1]): 3.91 µM

COc1ccc(/C=C(/C(=O)NC2CCCC2)c2cc(OC)c(OC)c(OC)c2)cc1O
IC50 (A549 [1]): > 50 µM

COc1ccc(/C=C(/C(=O)Nc2ccc(Cl)cc2)c2cc(OC)c(OC)c(OC)c2)cc1O
IC50 (A549 [1]): > 50 µM
